Our source for the IC50 values is US9765074B2, “Inhibitors of the renal outer medullary potassium channel” (Merck Sharp & Dohme Corp., priority 2013, dated 2017).

The assay addresses T1, hROMK (hKir1.1) (Homo sapiens, UniProt P48048).
T1 construct: expressed in transfected cells
T1 sequence (P48048 1-391): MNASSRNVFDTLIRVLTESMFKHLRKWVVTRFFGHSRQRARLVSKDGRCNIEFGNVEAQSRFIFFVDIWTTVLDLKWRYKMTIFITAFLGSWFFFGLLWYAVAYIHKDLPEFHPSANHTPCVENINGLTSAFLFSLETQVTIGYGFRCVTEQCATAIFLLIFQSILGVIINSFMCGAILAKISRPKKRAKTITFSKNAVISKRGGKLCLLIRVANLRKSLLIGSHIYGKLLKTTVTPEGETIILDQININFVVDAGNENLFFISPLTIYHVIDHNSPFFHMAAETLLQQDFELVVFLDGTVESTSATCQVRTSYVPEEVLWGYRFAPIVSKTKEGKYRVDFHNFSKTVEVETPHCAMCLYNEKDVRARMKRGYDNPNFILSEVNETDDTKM
The experiment in a line: Thallium Flux Assay (ROMK channel functional thallium flux, FLIPR-Tetra). In kind it is cell-based. Conditions: HEK293 cells stably expressing hROMK (hKir1.1); 30 min compound incubation. The method, then:
The following Thallium Flux Assay was performed on each of the final product compounds in the Examples.
Cell Culture Conditions—HEK293 cells stably expressing hROMK (hKir1.1) were grown at 37° C. in a 10% CO2 humidified incubator in complete growth media: Dulbecco's Modified Eagle Medium supplemented with non-essential amino acids, Penicillin/Streptomycin/Glutamine, G418 and FBS. At >80% confluency, aspirate the media from the flask and rinse with 10 mL Calcium/Magnesium-free PBS. Add 5 mL of 1× trypsin (prepared in Ca/Mg Free PBS) to T-225 flask and return flask to 37° C./CO2 incubator for 2-3 minutes. To dislodge the cell, gently bang the side of the flask with your hand. Triturate the cells completely and then transfer the cells to 25 mL complete media. Centrifuge at 1,500 rpm for 6 min followed by resuspension in complete growth media and determine cell concentration. For typical re-seeding, 4E6 cells/T-225 flask will attain >80% confluency in 4 days. Under ideal growth conditions and appropriate tissue culture practices, this cell line is stable for 40-45 passages. FluxOR Kit Components (Invitrogen F10017) • FluxOR™ Reagent (Component A) • FluxOR™ Assay Buffer (Component B)—10× Concentrate • PowerLoad™ Concentrate (Component C)—100× Concentrate • Probenecid (Component D)—Lyophilized sample is kept at −20° C. Water soluble, 100× after solubilization in 1 mL water. Store at 4° C. • FluxOR™ Chloride-free Buffer (Component E)—5× Concentrate • Potassium sulfate (K2SO4) Concentrate (Component F)—125 mM in water. Store at 4° C. • Thallium sulfate (Tl2SO4) Concentrate (Component G)—50 mM in water. Store at 4° C. • DMSO (dimethyl sulfoxide, Component H)—1 mL (100%) Reagent Preparation: FluxOR Working Solutions • 1000× FluxOR™ Reagent: Reconstitute a vial of component A in 100 μl DMSO; Mix well; Store 10 μl aliquots at −20° C. • 1× FluxOR™ Assay Buffer: Dilute Component B 10-fold with water; Adjust pH to 7.4 with Hepes/NaOH; Filter and store at 4° C. • Probenecid/Assay Buffer: 100 mL of 1× FluxOR™ Assay Buffer; 1 mL of reconstituted component D; Store at 4° C. • Loading Buffer (per microplate): 10 μl 1000× FluxOR™ Reagent; 100 μl component C; 10 mL Probenecid/Assay Buffer • Compound Buffer (per microplate): 20 mL Probenecid/Assay Buffer; 0.3 mM ouabain (10 mM ouabain in water can be stored in amber bottle/aluminum foil at room temperature); Test compound • 1× FluxOR™ Chloride-Free Buffer: Prepare 1× working solution in water. Can be stored at room temperature • Stimulant Buffer (prepared at 5× final concentration in 1× FluxOR™ Chloride-Free Buffer): 7.5 mM Thallium sulfate and 0.75 mM Potassium sulfate (to give a final assay concentration of 3 mM Thallium/0.3 mM Potassium). Store at 4° C. when not in use. If kept sterile, this solution is good for months. Assay Protocol—The ROMK channel functional thallium flux assay is performed in 384 wells, using the FLIPR-Tetra instrument. HEK-hKir1.1 cells are seeded in Poly-D-Lysine microplates and kept in a 37° C.-10% CO2 incubator overnight. On the day of the experiment, the growth media is replaced with the FluxOR™ reagent loading buffer and incubated, protected from light, at ambient temperature (23-25° C.) for 90 min. The loading buffer is replaced with assay buffer±test compound followed by 30 min incubation at ambient temperature, where the Thallium/Potassium stimulant is added to the microplate. Step Protocol • 1. Seed HEK-hKir1.1 cells (50 μl at 20,000 cells/well) in 384-well PDL coated Microplates • 2. Allow cells to adhere overnight in humidified 37° C./10% CO2 incubator • 3. Completely remove cell growth media from microplate and replace with 25 μl loading buffer • 4. Incubate Microplate at room temperature, protected form light, for 90 min • 5. Remove loading buffer and replace with 25 μl 1× Assay Buffer±test compound. • 6. Incubate microplate at room temperature, protected from light, for 30 min • 7. At FLIPR-Tetra 384: Add stimulant (Thallium/Potassium) solution to microplate and monitor fluorescence. […]
As to `O=C1C=C(N2C(=O)C3(CCN(C[C@H](O)c4ccc(-n5cnnn5)nn4)CC3)CC2C2CC2)CO1` (mixture of isomers) [Example 211, 3-cyclopropyl-8-{(2S)-2-hydroxy-2-[6-(1H-tetrazol-1-yl)pyridazin-3-yl]ethyl}-2-(5-oxo-2,5-dihydrofuran-3-yl)-2,8-diazaspiro[4.5]decan-1-one], half-maximal inhibition (IC50) was put at 40 nM.
Regarding `O=C1C=C(N2C(=O)C3(CCN(C[C@H](O)c4cnc(-n5cnnn5)cn4)CC3)CC2C2CC2)CO1` (mixture of isomers) [Example 212, 3-cyclopropyl-8-{(2S)-2-hydroxy-2-[5-(1H-tetrazol-1-yl)pyrazin-2-yl]ethyl}-2-(5-oxo-2,5-dihydrofuran-3-yl)-2,8-diazaspiro[4.5]decan-1-one], the concentration for half-maximal inhibition (IC50) (in general, the midpoint of a concentration-inhibition curve) amounted to 120 nM.
The same measure for `O=C1C=C(N2C(=O)C3(CCN(C[C@H](O)c4cnc(-n5cnnn5)cn4)CC3)CC2C2CC2)CO1` (mixture of isomers) [Example 213, 3-cyclopropyl-8-{(2S)-2-hydroxy-2-[5-(1H-tetrazol-1-yl)pyrazin-2-yl]ethyl}-2-(5-oxo-2,5-dihydrofuran-3-yl)-2,8-diazaspiro[4.5]decan-1-one]: 40 nM.
The same measure for `O=C1C=C(N2C(=O)C3(CCN(C[C@H](O)c4ccc(-n5cnnn5)nc4)CC3)CC2C2CC2)CO1` (mixture of isomers) [Example 214, 3-cyclopropyl-8-{(2R)-2-hydroxy-2-[6-(1H-tetrazol-1-yl)pyridin-3-yl]ethyl}-2-(5-oxo-2,5-dihydrofuran-3-yl)-2,8-diazaspiro[4.5]decan-1-one]: 30 nM; for `O=C1C=C(N2C(=O)C3(CCN(C[C@H](O)c4ccc(-n5cnnn5)nc4)CC3)CC2C2CC2)CO1` (mixture of isomers) [Example 215, 3-cyclopropyl-8-{(2R)-2-hydroxy-2-[6-(1H-tetrazol-1-yl)pyridin-3-yl]ethyl}-2-(5-oxo-2,5-dihydrofuran-3-yl)-2,8-diazaspiro[4.5]decan-1-one]: 30 nM; for `CCC1CC2(CCN(C[C@H](O)c3ccc(-n4cnnn4)nc3)CC2)C(=O)N1C1=CC(=O)OC1` (mixture of isomers) [Example 218, 3-ethyl-8-{(2R)-2-hydroxy-2-[6-(1H-tetrazol-1-yl)pyridin-3-yl]ethyl}-2-(5-oxo-2,5-dihydrofuran-3-yl)-2,8-diazaspiro[4.5]decan-1-one]: 10 nM.
`CCC1CC2(CCN(C[C@H](O)c3ccc(-n4cnnn4)nc3)CC2)C(=O)N1C1=CC(=O)OC1` (mixture of isomers) [Example 219, 3-ethyl-8-{(2R)-2-hydroxy-2-[6-(1H-tetrazol-1-yl)pyridin-3-yl]ethyl}-2-(5-oxo-2,5-dihydrofuran-3-yl)-2,8-diazaspiro[4.5]decan-1-one]: the IC50 was determined as 10 nM.
The figure for `CCC1CC2(CCN(C[C@H](O)c3cnc(-n4cnnn4)cn3)CC2)C(=O)N1C1=CC(=O)OC1` (mixture of isomers) [Example 220, 3-ethyl-8-{(2S)-2-hydroxy-2-[5-(1H-tetrazol-1-yl)pyrazin-2-yl]ethyl}-2-(5-oxo-2,5-dihydrofuran-3-yl)-2,8-diazaspiro[4.5]decan-1-one] is 40 nM; for `CCC1CC2(CCN(C[C@H](O)c3cnc(-n4cnnn4)cn3)CC2)C(=O)N1C1=CC(=O)OC1` (mixture of isomers) [Example 221, 3-ethyl-8-{(2S)-2-hydroxy-2-[5-(1H-tetrazol-1-yl)pyrazin-2-yl]ethyl}-2-(5-oxo-2,5-dihydrofuran-3-yl)-2,8-diazaspiro[4.5]decan-1-one] it is 30 nM; for `O=C1C=C(N2C(=O)C3(CCN(C[C@H](O)c4ccc(-n5cnnn5)cn4)CC3)CC2C2CC2)CO1` (mixture of isomers) [Example 222, 3-cyclopropyl-8-{(2S)-2-hydroxy-2-[5-(1H-tetrazol-1-yl)pyridin-2-yl]ethyl}-2-(5-oxo-2,5-dihydrofuran-3-yl)-2,8-diazaspiro[4.5]decan-1-one] it is 100 nM.
